According to US11376230B2 (priority 2011, dated 2022):
Read-outs that look alike come from different tables or passages of the source.

How the values were obtained:
P. aeruginosa biofilms = details: for Average CFU: 24 h treatment of 24 h old biofilm
Source text: (§1) The wild-type P. aeruginosa PAO1 used for the planktonic and biofilm experiments was obtained from the Pseudomonas Genetic Stock Center (www.pseudomonas.med.ecu.edu, strain PAO0001). The wild-type S. aureus 8325-4, used for planktonic and biofilm experiments was described by Novick, R. P. 1967. The following bacteria were obtained from the Department of Clinical Microbiology, Copenhagen University Hospital, Denmark: E. coli (wild type and clinical ESBL producing strains), S. aureus (wild type and clinical MRSA strains) and Klebsiella pneumoniae (clinical ESBL producing strain).
For plating, Luria broth (LB) medium mix with 2.0% agar was used. For all experiments including bacterial biofilms, AB minimal medium supplemented with glucose was used except if different is mentioned. AB minimal medium consists of: A standard buffer system consisting of (NH4)2SO4 (15.1 mM), Na2HPO4.2H2O (33.7 mM) and KH2PO4 (22.0 mM. NaCl (0.051 M), MgCl2 (1 mM), CaCl2 (0.1 mM), and trace metals (100 μl/liter). The trace metal solution contained CaSa4.2H2O (200 mg/liter), FeSO4.7H2O (200 mg/liter), MnSO4.H2O (20 mg/liter), CuSO4.5H2O (20 mg/liter), ZnSO4.7H2O (20 mg/liter), CoSO4.7H2O (10 mg/liter), NaMoO4.H2O, and H3BO3 (5 mg/liter).
(§2) Two types of biofilm setups were used, micropore filter assay and a microtitter plate assay: • The microtitter plate assay is based on biofilms growing in microtiter dishes with AB minimal medium containing 0.3 mM glucose as described by O′ toole et al (1999). • The Micro-pore assay is based on biofilms growing on a micropore filter on AB minimal agar plates. The micropore filters are placed on top of an AB minimal agar plate. Bacteria are propagated on the micro-pore filters as spots of 20 μl bacterial suspension and incubated at 37° C. For a biofilm to develop the filters were transferred to a fresh AB minimal agar plate once after 24 hours. The biofilm were mature and ready for use after 48 hours incubation in total, at 37° C. Planktonic cultures were grown in shake flasks at 37° C. The microtitter plate assay for biofilm tolerance to sodium diacetate was assessed by exchanging the AB minimal medium of 24 h old biofilms with AB minimal medium supplemented with different concentrations of sodium diacetate.
The antimicrobial effect was determined by plating the treated and non-treated biofilm. To ensure complete removal of all adhering bacteria the wells of the microtitter plate were washed mechanically.

[1] = test system: E. coli (wild type and clinical ESBL producing strains) biofilm
Source text: as §1, §2
(§3) To elucidate the efficacy of dry sodium diacetate on microbial biofilms of P. aeruginosa. Bacteria were propagated on a micropore filter for biofilm formation. The Micro-pore filters were placed on top of an LB-agar plate. Bacteria were spread on the micro-pore filters as spots and incubated at 37° C. For a biofilm to develop the filters were transferred to a fresh LB-agar plate once after 24 hours. The biofilm were mature and ready for use after 48 hours incubation in total, at 37° C.
(§4) After 48 hours NaHAc2 was added on top of the biofilm spot, either directly or between two pieces of gauze. The control was plain gauze. All treatments were incubated for 24 hours. The effect was evaluated by replication of the micro pore filter after treatment. The endpoint was growth or no growth of bacteria after the treatment.

[2] = test system: Klebsiella pneumoniae (clinical ESBL producing strain) biofilm; details: dry sodium diacetate, same method as example 3
Source text: as §1, §2, §3, §4

[3] = test system: P. aeruginosa mature biofilm
Source text: as §1, §2, §3, §4

[4] = test system: S. aureus (wild type and clinical MRSA strains) biofilm; details: dry sodium diacetate, same method as example 3
Source text: as §1, §2, §3, §4

[5] = test system: bacterially infected chronic wounds; details: dressings with 0.2 mg/cm^2 or less on surface, with negative pressure wound therapy; initial results
Procedure: To elucidate the clinical potential of sodium diacetate in wound care human clinical trials are being performed in a hospital setting to test the efficacy of dressings incorporating sodium diacetate on bacterially infected chronic wounds.
Dressings are used employing 0.2 mg/cm^2 or less of sodium diacetate on the surface of the dressing material. Incorporating smaller amounts of sodium diacetate is tested incrementally. Initial trials are performed using negative pressure wound therapy in combination with dressings incorporating sodium diacetate as described herein. Trials are performed on test subjects having chronic wounds due to infection with for example P. aeruginosa and with reduced immune responses due to for example, drug abuse, diabetes, or obesity.

[6] = 24 hours old static biofilms in AB minimal medium

## CC(=O)O.CC(=O)[O-].[Na+] [sodium diacetate]
P. aeruginosa biofilms; 0.25% NaHAc2 (w/v)
  Average CFU: 1.15E+09 CFU
P. aeruginosa biofilms; 0.50% NaHAc2 (w/v)
  Average CFU: 3.12E+08 CFU
P. aeruginosa biofilms; 0.75% NaHAc2 (w/v)
  Average CFU: 9.63E+07 CFU
P. aeruginosa biofilms; 1.00% NaHAc2 (w/v)
  Average CFU: 8.05E+06 CFU
P. aeruginosa biofilms; 1.25% NaHAc2 (w/v)
  Average CFU: 1.96E+05 CFU
P. aeruginosa biofilms; 1.50% NaHAc2 (w/v)
  Average CFU: 1.98E+03 CFU
P. aeruginosa biofilms; 1.75% NaHAc2 (w/v)
  Average CFU: 0 CFU
P. aeruginosa biofilms; 2.00% NaHAc2 (w/v)
  Average CFU: 0 CFU
P. aeruginosa biofilms; 2.25% NaHAc2 (w/v)
  Average CFU: 0 CFU
P. aeruginosa biofilms; 2.50% NaHAc2 (w/v)
  Average CFU: 0 CFU
P. aeruginosa biofilms; 2.75% NaHAc2 (w/v)
  Average CFU: 0 CFU
P. aeruginosa biofilms; 3% NaHAc2 (w/v)
  Average CFU: 0 CFU
P. aeruginosa biofilms; [6]
  concentration at which an effect of the salt is already seen: 0.25 % (W/V)
  concentration giving complete killing of the biofilm bacteria: 1.75 % (W/V)
P. aeruginosa biofilms; 24 hours old static biofilms in AB minimal medium, listed as NaHAc2
  concentration giving complete killing of the biofilm bacteria: ≥ 1.75 % (W/V)
P. aeruginosa biofilms; even the lowest concentrations of NaHAc2
  killing of biofilm: partial killing
[1]; between gauze soaked in wounds buffer (FIG. 4)
  growth or no growth of bacteria after treatment: complete eradication
[1]; dry between gauze (FIG. 4)
  growth or no growth of bacteria after treatment: complete eradication
[1]; dry sodium diacetate, same method as example 3, wild type and clinical ESBL producing strains
  eradication of biofilm infection: completely eradicated
[1]; foam soaked in wounds buffer (FIG. 4)
  growth or no growth of bacteria after treatment: complete eradication
[2]
  eradication of biofilm infection: completely eradicated
[3]; NaHAc2 on top of 48 h biofilm spot, directly or between two pieces of gauze, 24 hours
  growth or no growth of bacteria after treatment: completely eradicates
[3]; treatment 1: dry between gauze
  growth or no growth of bacteria after treatment: complete eradication
[3]; treatment 2: between gauze soaked in wounds buffer
  growth or no growth of bacteria after treatment: complete eradication
[3]; treatment 3: foam soaked in wounds buffer
  growth or no growth of bacteria after treatment: complete eradication
[3]; treatment 4: dry
  growth or no growth of bacteria after treatment: complete eradication
[4]
  eradication of biofilm infection: completely eradicated
[5]
  infections of chronic wounds: eradicated
  wound healing: accelerated
0.50% NaHAc2 (w/v) in AB minimal media
  Media pH: 5.78
0.75% NaHAc2 (w/v) in AB minimal media
  Media pH: 5.31
1.00% NaHAc2 (w/v) in AB minimal media
  Media pH: 5.09
1.25% NaHAc2 (w/v) in AB minimal media
  Media pH: 4.99
1.50% NaHAc2 (w/v) in AB minimal media
  Media pH: 4.91
1.75% NaHAc2 (w/v) in AB minimal media
  Media pH: 4.86
2.00% NaHAc2 (w/v) in AB minimal media
  Media pH: 4.83
2.25% NaHAc2 (w/v) in AB minimal media
  Media pH: 4.80
2.50% NaHAc2 (w/v) in AB minimal media
  Media pH: 4.78
2.75% NaHAc2 (w/v) in AB minimal media
  Media pH: 4.76
3.00% NaHAc2 (w/v) in AB minimal media
  Media pH: 4.74
AB minimal media (FIG. 1)
  concentration at which the pH value levels out: around 1.5 g/L
At 3 g/L of sodium diacetate (FIG. 1)
  pH of aqueous AB minimal media: ~4.75
